How the values were obtained:
Assay in all cases: relative viability (nuclei count vs DMSO), 5 days (fraction); higher = more cells survive
[1] = compound: COc1cccc2c1C(=O)c1c(O)c3c(c(O)c1C2=O)C[C@@](O)(C(=O)CO)C[C@@H]3O[C@H]1C[C@H](N)[C@H](O)[C@H](C)O1 [Doxorubicin] + COc1cc2c(Oc3ccc(NC(=O)C4(C(=O)Nc5ccc(F)cc5)CC4)cc3F)ccnc2cc1OCCCN1CCOCC1 [Foretinib] (partner 0.25 µM)
Summary of the method: (§1)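 Values are medians from duplicate plates. Each reflects relative viability, defined as the nuclei count of treated wells over that of vehicle wells. Lung cancer cell lines in 1536-well plates were pin-tool dosed one day after seeding with one drug alone or with a fixed anchor-drug dose plus five library-drug doses (not always all listed) in √10 steps, then fixed, stained and imaged at 4× after 5 days.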

[2] = compound: COc1cccc2c1C(=O)c1c(O)c3c(c(O)c1C2=O)C[C@@](O)(C(=O)CO)C[C@@H]3O[C@H]1C[C@H](N)[C@H](O)[C@H](C)O1 [Doxorubicin] + CC(=O)Nc1cccc(-n2c(=O)n(C3CC3)c(=O)c3c(Nc4ccc(I)cc4F)n(C)c(=O)c(C)c32)c1 [Trametinib] (partner 0.02 µM)
Summary of the method: as §1

[3] = compound: COC1=C(C=C(C=C1)C2=CC3=NC=CN3C(=N2)NC4=C(C=CC=N4)C(=O)N)OC [BAY61-3606] + Nc1nc2[nH]cc(CCc3ccc(C(=O)N[C@@H](CCC(=O)O)C(=O)O)cc3)c2c(=O)[nH]1 [Pemetrexed] (partner 0.2 µM)
Summary of the method: as §1

[4] = compound: COc1cccc2c1C(=O)c1c(O)c3c(c(O)c1C2=O)C[C@@](O)(C(=O)CO)C[C@@H]3O[C@H]1C[C@H](N)[C@H](O)[C@H](C)O1 [Doxorubicin] + Nc1nc2[nH]cc(CCc3ccc(C(=O)N[C@@H](CCC(=O)O)C(=O)O)cc3)c2c(=O)[nH]1 [Pemetrexed] (partner 0.2 µM)
Summary of the method: as §1

| Cell Line | relative viability ([1]; first compound 0.001 µM) | relative viability ([1]; first compound 0.003162 µM) | relative viability ([1]; first compound 0.01 µM) | relative viability ([1]; first compound 0.03162 µM) | relative viability ([1]; first compound 0.1 µM) | relative viability ([2]; first compound 0.001 µM) | relative viability ([2]; first compound 0.003162 µM) | relative viability ([2]; first compound 0.01 µM) | relative viability ([2]; first compound 0.03162 µM) | relative viability ([2]; first compound 0.1 µM) | relative viability ([3]; first compound 0.02 µM) | relative viability ([3]; first compound 0.06325 µM) | relative viability ([3]; first compound 0.2 µM) | relative viability ([3]; first compound 0.6325 µM) | relative viability ([3]; first compound 2 µM) | relative viability ([4]; first compound 0.001 µM) | relative viability ([4]; first compound 0.003162 µM) | relative viability ([4]; first compound 0.01 µM) | relative viability ([4]; first compound 0.03162 µM) | relative viability ([4]; first compound 0.1 µM) |
| --- | --- | --- | --- | --- | --- | --- | --- | --- | --- | --- | --- | --- | --- | --- | --- | --- | --- | --- | --- | --- |
| NCI-H1651 | 0.842 | 0.929 | 0.737 | 0.48 | 0.222 | 0.82 | 0.843 | 0.817 | 0.707 | 0.796 | 0.608 | 0.544 | 0.492 | 0.537 | 0.531 | 0.591 | 0.628 | 0.604 | 0.57 | 0.588 |
| BEN | 0.978 | 0.678 | 0.612 | 0.49 | 0.582 | 1.02 | 0.854 | 0.897 | 0.723 | 0.968 | 0.959 | 0.627 | 0.727 | 0.748 | 0.724 | 0.899 | 0.78 | 0.926 | 0.631 | 0.701 |
| EMC-BAC-2 | 1.15 | 1.06 | 0.861 | 0.595 | 0.582 | 0.807 | 0.633 | 0.576 | 0.297 | 0.36 | 0.464 | 0.438 | 0.449 | 0.438 | 0.523 | 0.491 | 0.48 | 0.444 | 0.409 | 0.369 |
| LXF-289 | 0.958 | 0.975 | 0.97 | 1.09 | 0.98 | 0.666 | 0.697 | 0.675 | 0.723 | 0.738 | 0.94 | 0.939 | 0.901 | 0.946 | 0.907 | 0.95 | 0.917 | 0.839 | 1.03 | 0.929 |
| ABC-1 | 1.48 | 1.13 | 1.02 | 0.676 | 0.339 |  |  |  |  |  |  |  |  |  |  |  |  |  |  |  |
| NCI-H358 | 0.743 | 0.737 | 0.341 | 0.151 | 0.122 | 0.164 | 0.138 | 0.138 | 0.089 | 0.0919 | 0.196 | 0.184 | 0.226 | 0.163 | 0.153 | 0.152 | 0.183 | 0.179 | 0.156 | 0.169 |
| NCI-H1355 | 0.97 | 1.01 | 0.884 | 0.91 | 0.897 | 0.457 | 0.45 | 0.472 | 0.43 | 0.462 | 1.1 | 1.03 | 0.977 | 1.11 | 0.924 | 1 | 1.02 | 1 | 1.01 | 1.04 |
| EBC-1 | 0.114 | 0.1 | 0.0884 | 0.0952 | 0.0885 |  |  |  |  |  |  |  |  |  |  |  |  |  |  |  |
| NCI-H3122 | 0.959 | 0.918 | 0.944 | 0.942 | 0.904 | 0.201 | 0.223 | 0.229 | 0.185 | 0.264 | 0.208 | 0.219 | 0.211 | 0.187 | 0.201 | 0.203 | 0.208 | 0.334 | 0.194 | 0.174 |
